Results as given in publication PMC7112222, “Investigation of pyrimidine nucleoside analogues as chemical probes to assess compound effects on the proliferation of Trypanosoma cruzi intracellular parasites” (PLoS Neglected Tropical Diseases, 2020).
Several values for one entry are separate records, joined by “and”; a condition that tells them apart may be missing. Identical values can stand only once. Like-named read-outs stand apart in the source and are kept apart here.

How the values were obtained:
[1] = test system: HEK293 cells; settings: read-out: IC50 value, cytotoxicity against HEK293 cells; 72 hours exposure; cited from earlier work
[2] = test system: T. cruzi amastigote DNA; experiment: Incorporation of pyrimidine nucleoside analogues into T. cruzi amastigote DNA (click chemistry, colocalisation with Hoechst); format: cell-based, Trypanosoma cruzi
Protocol: T. cruzi infected 3T3 fibroblasts were initially exposed to nucleoside analogues for 48 hours at concentrations ranging from 73 μM to 1.8 x10^-4 μM. Host cell, parasite and compound additions were carried out as previously described. Cells were then stained using a click chemistry azide cocktail, followed by Hoechst to identify nuclear material, as previously reported. The freshly prepared azide cocktail consisted of a final concentration of 5 μM of Alexa Fluor 488 azide (Thermo Fisher Scientific, USA), 1 mM copper sulfate (Sigma Aldrich, USA) and 100 mM sodium ascorbate (Sigma Aldrich, USA), in DPBS. Wells were imaged on an Opera image-based reader (Perkin Elmer, USA) at 20x magnification with 405 nm (defined as Hoechst channel) and 488 nm (defined as Alexa 488 channel) lasers using filter sets/bandwidth (emission) of 450/50 nm and 540/75 nm, respectively. To determine nucleoside analogue incorporation into T. cruzi amastigote DNA, a script was developed utilising the Columbus (PerkinElmer, USA) image-based analysis and data handling platform (CHEMICAL LABEL INCORPORATION SCRIPT). Nucleoside analogues were also tested for DNA incorporation following 2, 4 and 24 hours exposure, at the same concentrations. All experiments were performed in duplicate. The colocalisation of nucleoside analogues and Hoechst (replicating parasites) at each time point (48, 4 and 2 hours) was compared using GraphPad Prism 5.
A CHEMICAL LABEL INCORPORATION SCRIPT developed in Columbus firstly identified Hoechst stained parasites within host cells by spot analysis, utilizing the same building block analysis as we had previously developed to determine T. cruzi infected cells. The physical definition of amastigote DNA was identified by Hoechst, with the only modification being that as there was no cytoplasmic marker, thus segmentation borders in the Hoechst channel were applied, which effectively separated host cells (Fig 2). Further building blocks were added to calculate the intensity of Alexa Fluor 488 within the spots identified by Hoechst, in infected cells. This script was first applied to images to determine the mean fluorescence intensity in the Alexa 488 channel of Hoechst identified parasites, without the addition of the chemical label. The mean plus three times the standard deviation of this intensity was used to define values above background, thus the minimum intensity above background required to identify parasite DNA which successfully incorporated the chemical label. An input box was incorporated into the script, in which this minimum intensity above background was entered. Parameters of the developed script, “CHEMICAL LABEL INCORPORATION” are shown in S1 Table.
• Number of T. cruzi amastigote infected cells (≥5 parasites per cell, identified with Hoechst). • Number of Hoechst identified T. cruzi parasites (in infected cells). • Number of parasites incorporating chemical label (T. cruzi parasites with Alexa 488 intensity above background, in infected cells). • % chemical label incorporation. Alexa 488 spots in infected cells (above background) NO / Hoechst spots in infected cells NO *100 = Percentage colocalisation; where NO = number of objects. • Number of host cells.

[3] = test system: HEK293 cells; experiment: Redox-based assay to assess HEK293 viability; format: cell-based, human; settings: Homo sapiens, HEK293, 48 hours exposure
Protocol: To determine the effect of the nucleoside analogues against a replicating mammalian cell line, analogues were tested against HEK293 cells, utilising a REDOX-based metabolic assay to assess cell viability as previously described. […] Experiments were performed over two biological replicates.

[4] = test system: 3T3 cells; experiment: Image-based assay, effect on 3T3 host cells; format: cell-based
Protocol: Parasites and host cells were maintained as outlined previously. Briefly, host 3T3 fibroblasts (ATCC, CCL-92) were grown in RPMI medium (Thermo Fisher Scientific, USA) with no phenol red, supplemented with 10% FBS (Thermo Fisher Scientific, USA) and incubated at 37°C in 5% CO2. Host cells were harvested at 70% confluency and were split every 2–3 days in 175 cm^2 flasks. 3T3 cells were cultured up to passage 7 as contact inhibition was reduced or lost at higher passages. Prior to infection with T. cruzi trypomastigotes, host cells were seeded at 1.2 x 10^6 cells in 75 cm^2 or 4 x 10^5 cells in 25 cm^2 flasks and grown for 24 hours before parasite addition. Parasites were added at a multiplicity of infection (MOI) of 10:1 and incubated for 24 hours before non-infected trypomastigotes were washed off the host cell bed with PBS supplemented with Ca^2+ and Mg^2+ (Thermo Fisher Scientific, USA). Incubation was continued for a further 3 days, until tissue culture trypomastigotes began to egress from host cells. Egressed parasites were used for assays or to continue the infective life cycle in vitro.
[…] Briefly, 14-point serial dilutions of the compounds in 100% DMSO were prepared and then further diluted in sterile water at a ratio of 1:21 compound: water. Five microliters of the diluted compounds were added to wells of T. cruzi infected host cells, using a MiniTrak compound handling device (Perkin Elmer, USA) with final concentrations in the plate ranging from 183 μM to 4.6 x 10^−4 μM. All experiments were performed with two separate biological replicates.
Image analysis was performed with a script developed in Columbus software (CHEMICAL LABEL INCORPORATION SCRIPT). Control wells were also imaged at an increased, 60x magnification to show the distribution of staining and the structure of the parasites within host cells. Eight background control wells consisted of infected host cells, fixed and exposed to Hoechst and the click chemistry cocktail, without the addition of the chemical probe EdU. […] The percentage activity of compounds against parasite number / infected cells (identified with Hoechst) was calculated against a positive control of 12 μM of NFX for the parasite and 30 μM of PURO the host cells; and a negative control of 0.47% DMSO. All images taken were not modified and were taken on an Opera, confocal image-based reader.

[5] = test system: T. cruzi intracellular amastigotes; experiment: Image-based assay of the number of T. cruzi infected cells (intracellular amastigotes in 3T3 host cells); format: cell-based, Trypanosoma cruzi; settings: 2 and 4 hour exposures; 73 μM
[6] = test system: L. donovani; set-up: method as in PMID 27021313; settings: 72 hours incubation; cited from earlier work

C#Cc1cn([C@H]2C[C@H](O)[C@@H](CO)O2)c(=O)[nH]c1=O [EdU, 5-ethynyl-2′-deoxy-uridine]
IC50 [1]: 0.06 ± 0.043 µM | % incorporation into T. cruzi DNA ([2]; 2 hours, 1.8 μM): 75 ± 3.6% | % of Hoechst defined T. cruzi cells with incorporation ([2]; 4 hours, 0.37 μM): 89 ± 4.8% | % of cells with incorporation ([2]; 48 hours exposure, 0.018 μM): 72 ± 1.09% | % of cells containing Alexa Fluor 488 labelled DNA (incorporation) ([2]; 48 hours exposure, 0.037 μM): 93.1 ± 2.8% | highest incorporation ([2]; 48 hours exposure, 0.073 μM): 94 ± 2.5% and 94% | incorporation into T. cruzi DNA following 48 hours incubation (in words) ([2]; 48 hours incubation): incorporated | IC50 ([3]; highest test concentration 87 μM, EdU value estimated, relative to Emax plateau of 57%): 0.67 ± 0.26 µM | Emax ([3]; read-out: plateau of activity (Emax) against HEK293 cells): 57% | activity against host cells after short exposure ([4]; 2 and 4 hour exposures, 73 μM): less than 20% | Host cell 3T3 IC50 value 48 h ([4]; 48 h, highest test concentration 183 μM): NA (NA = ≤50% activity at the highest concentration tested and an IC50 value could not be determined) | activity against 3T3 cells in the image-based assay ([4]; 48 hours): < 20% | activity against T. cruzi amastigote growth after short exposure [5]: less than 20% | toxicity toward L. donovani [6]: lack of toxicity
